For 27 molecules, Ki results are on record in US7462625B2, “Gonadotropin-releasing hormone receptor antagonists and methods relating thereto” (Neurocrine Biosciences, Inc., priority 2000, dated 2008).

Some results are limits rather than exact numbers.

The target in the assay is T1, GnRH receptor (Homo sapiens, UniProt P30968).
T1 construct: expressed in transfected cells
T1 sequence (P30968 1-328): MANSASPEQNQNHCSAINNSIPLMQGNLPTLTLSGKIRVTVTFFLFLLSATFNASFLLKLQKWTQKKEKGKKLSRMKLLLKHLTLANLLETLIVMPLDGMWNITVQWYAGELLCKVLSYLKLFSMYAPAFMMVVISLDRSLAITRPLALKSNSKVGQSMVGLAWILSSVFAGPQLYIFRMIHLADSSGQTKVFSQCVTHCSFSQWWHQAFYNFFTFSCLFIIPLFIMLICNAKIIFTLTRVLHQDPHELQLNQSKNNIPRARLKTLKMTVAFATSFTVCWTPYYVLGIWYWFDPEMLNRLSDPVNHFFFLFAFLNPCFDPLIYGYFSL
The assay is described as follows: GnRH receptor membrane binding assay. Conditions: GnRH receptor membrane binding assay, [125I]-labeled GnRH peptide; read-out: Ki. The procedure:
Radio-Iodination of GnRH Peptide
The GnRH analog is labeled by the chloramine-T method. […] The reaction is stopped by the addition of 60 μg sodium metabisulfite and the free iodine is removed by passing the iodinated mixture through a C-8 Sep-Pak cartridge (Millipore Corp., Milford, Mass.). The peptide is eluted with a small volume of 80% acetonitrile/water. […] The purified radioactive peptide is stored in 0.1% BSA/20% acetonitrile/0.1% TFA at −80° C. and can be used for up to 4 weeks.
GnRH Receptor Membrane Binding Assay
Cells stably, or transiently, transfected with GnRH receptor expression vectors are harvested, resuspended in 5% sucrose and homogenized using a polytron homogenizer (2×15 sec). Nucleii are removed by centrifugation (3000×g for 5 min.), and the supernatant centrifuged (20,000×g for 30 min, 4° C.) to collect the membrane fraction. The final membrane preparation is resuspended in binding buffer (10 mM Hepes (pH 7.5), 150 mM NaCl, and 0.1% BSA) and stored at −70° C. Binding reactions are performed in a Millipore MultiScreen 96-well filtration plate assembly with polyethylenimine coated GF/C membranes. […] The reaction is terminated after 90 minutes by application of vacuum and washing (2×) with phosphate buffered saline. Bound radioactivity is measured using 96-well scintillation counting (Packard Topcount) or by removing the filters from the plate and direct gamma counting. Ki values are calculated from competition binding data using non-linear least squares regression using the Prism software package (GraphPad Software).

With `COc1ccc(Nc2nc(-c3c(C)n(Cc4c(F)cccc4F)c(=O)n(C[C@H](N)c4ccccc4)c3=O)cs2)cc1OC` [12-27], the Ki (as a rule, the dissociation constant of the complex between target and ligand, obtained from inhibition or displacement) was < 100 nM. As for `COc1cccc(-c2c(C)n(Cc3c(F)cccc3F)c(=O)n(C[C@@H](C)NCc3ccsc3)c2=O)c1F` [9-570], the inhibition constant Ki was < 100 nM.

In the case of `Cc1c(-c2csc(-c3ccccc3)n2)c(=O)n(C[C@H](N)c2ccccc2)c(=O)n1Cc1c(F)cccc1F` [12-4], the Ki is < 100 nM. The same measure for `CCOc1cccc(-c2c(C)n(Cc3c(F)cccc3F)c(=O)n(C[C@H](N)c3ccccc3)c2=O)c1` [8-59]: < 100 nM; for `COc1cccc(-c2c(C)n(Cc3c(F)cccc3F)c(=O)n([C@H](C)CNCc3cccc(F)c3)c2=O)c1` [9-448]: < 100 nM; for `Cc1ccc(N2CCN(CCn3c(=O)c(-c4ccc5c(c4)OCCO5)c(C)n(Cc4c(F)cccc4F)c3=O)CC2)cc1` [9-281]: < 100 nM. Take `COc1ccc(-c2c(C)n(Cc3c(F)cccc3F)c(=O)n(C[C@H](N)c3ccccc3)c2=O)cc1` [8-100]: the Ki is < 100 nM. For the molecule `COc1cccc(-c2c(C)n(Cc3c(F)cccc3F)c(=O)n(C[C@@H](C)N(C)CCc3ccccn3)c2=O)c1` [9-318], the Ki is < 100 nM. Consider `CCC(C)C(C)CN[C@@H](C)Cn1c(=O)c(-c2cccc(OC)c2F)c(C)n(Cc2c(F)cccc2F)c1=O` (stereo partly drawn) [9-678], for which the Ki is < 100 nM.

Turning to `COc1cccc(-c2c(C)n(Cc3c(F)cccc3F)c(=O)n(C[C@H](N)COCc3ccccc3)c2=O)c1F` [8-15], the Ki was < 100 nM. `COc1cccc(-c2c(C)n(Cc3c(F)cccc3F)c(=O)n([C@H](C)CNCc3cc(C)cc(C)c3)c2=O)c1` [9-454]: the Ki is < 100 nM.

In the case of `COc1cccc(-c2c(C)n(Cc3c(F)cccc3F)c(=O)n(C[C@H](C)NCCc3ccccn3)c2=O)c1F` [9-470], the Ki was < 100 nM.

As to `Cc1cc(-c2c(C)n(Cc3c(F)cccc3F)c(=O)n(C[C@H](N)c3ccccc3)c2=O)ccc1F` [8-44], the Ki was < 100 nM. The same measure for `Cc1c(-c2ccc(Oc3ccccc3)cc2)c(=O)n(CCNCc2cccc([N+](=O)[O-])c2)c(=O)n1Cc1c(F)cccc1F` [9-142]: < 100 nM. As to `Cc1c(-c2ccc3c(c2)OCO3)c(=O)n(C[C@H](CO)N(CC2CC2)CC2CC2)c(=O)n1Cc1c(F)cccc1F` [9-745], the Ki was < 100 nM. For `Cc1c(-c2ccccc2F)c(=O)n(CCN2CCN(C(=O)OCc3ccccc3)CC2)c(=O)n1Cc1c(F)cccc1F` [9-58], the inhibition constant (Ki) is < 100 nM. As to `COc1cccc(-c2c(C)n(Cc3c(F)cccc3F)c(=O)n(C[C@@H](C)NCc3ccco3)c2=O)c1F` [9-652], the Ki is < 100 nM. The same measure for `Cc1c(-c2ccccc2F)c(=O)n(CCN(C)C)c(=O)n1Cc1c(F)cccc1F` [9-237]: < 100 nM. For `Cc1c(-c2ccc3c(c2)OCCO3)c(=O)n(CCN[C@@H](C)c2ccc3ccccc3c2)c(=O)n1Cc1c(F)cccc1F` [9-275], the Ki is < 100 nM.

`COc1cccc(-c2c(C)n(Cc3c(F)cccc3F)c(=O)n(C[C@@H](C)NC(C)C(C)C)c2=O)c1F` (stereo partly drawn) [9-613]: the inhibition constant (Ki) is < 100 nM. Take `COc1cccc(-c2c(C)n(Cc3c(F)cccc3F)c(=O)n(C(C)CNCc3ccccn3)c2=O)c1` (stereo not drawn) [9-402]: the Ki is < 100 nM. Take `CN[C@@H](Cc1ccccc1)Cn1c(=O)c(-c2cccc(OC)c2F)c(C)n(Cc2c(F)cccc2F)c1=O` [9-517]: the inhibition constant (Ki) was < 100 nM. The same measure for `COc1cccc(-c2c(C)n(Cc3c(F)cccc3F)c(=O)n(CC(C)NC(C)C(C)C)c2=O)c1F` (stereo not drawn) [9-399]: < 100 nM; for `COc1cccc(-c2c(C)n(Cc3c(F)cccc3F)c(=O)n([C@H](C)CNCc3c(F)cccc3Cl)c2=O)c1` [9-514]: < 100 nM. As for `Cc1c(-c2ccccc2F)c(=O)n(CCN(C)CCc2ccccn2)c(=O)n1Cc1c(F)cccc1F` [6-1], the Ki is < 100 nM. In the case of `COc1ccc(Nc2nc(-c3c(C)n(Cc4c(F)cccc4F)c(=O)n(C[C@H](N)c4ccccc4)c3=O)cs2)cc1` [12-10] it was < 100 nM; in that of `Cc1c(-c2ccc(C(C)C)cc2)c(=O)n(CCN2CCN(c3cccc(Cl)c3)CC2)c(=O)n1Cc1c(F)cccc1F` [9-85], < 100 nM.
